Measurements reported in patent US20190106460A1, “BINDING INHIBITORS OF THE BETA. TRANSDUCIN REPEAT-CONTAINING PROTEIN” (priority 2011, published 2019).
Where two headings read alike, the source gives them in different places. Starred links: 1 amine or outer side, 2 acyl side, 3 side chain; linkers in the order of their positions; H or OH if unused. Non-standard residues stand in square brackets, D forms with d. Residues, ends and D or L forms follow the SMILES beside them. Phe(4-NO2) = N[C@@H](Cc1ccc([N+](=O)[O-])cc1)C(=O)O; Phe(3-F) = N[C@@H](Cc1cccc(F)c1)C(=O)O; 1Nal = N[C@@H](Cc1cccc2ccccc12)C(=O)O; Maleoyl = O=C(/C=C\C(=O)[*:2])[*:1]; Suc = O=C(CCC(=O)[*:2])[*:1]

Assays:
FBW7/Skp1 = FBW7/Skp1 (Homo sapiens, UniProt Q969H0); assay: Selectivity assay vs other E3s: Fbw7; format: biochemical; conditions: for inhibition at 100 µM: value in brackets, read-out: % Inhibition Fbw7 @ (100 μM); for inhibition at 10 µM: read-out: % Inhibition Fbw7 @ 10 μM
Chain of FBW7/Skp1 (Q969H0 whole entry, species assumed): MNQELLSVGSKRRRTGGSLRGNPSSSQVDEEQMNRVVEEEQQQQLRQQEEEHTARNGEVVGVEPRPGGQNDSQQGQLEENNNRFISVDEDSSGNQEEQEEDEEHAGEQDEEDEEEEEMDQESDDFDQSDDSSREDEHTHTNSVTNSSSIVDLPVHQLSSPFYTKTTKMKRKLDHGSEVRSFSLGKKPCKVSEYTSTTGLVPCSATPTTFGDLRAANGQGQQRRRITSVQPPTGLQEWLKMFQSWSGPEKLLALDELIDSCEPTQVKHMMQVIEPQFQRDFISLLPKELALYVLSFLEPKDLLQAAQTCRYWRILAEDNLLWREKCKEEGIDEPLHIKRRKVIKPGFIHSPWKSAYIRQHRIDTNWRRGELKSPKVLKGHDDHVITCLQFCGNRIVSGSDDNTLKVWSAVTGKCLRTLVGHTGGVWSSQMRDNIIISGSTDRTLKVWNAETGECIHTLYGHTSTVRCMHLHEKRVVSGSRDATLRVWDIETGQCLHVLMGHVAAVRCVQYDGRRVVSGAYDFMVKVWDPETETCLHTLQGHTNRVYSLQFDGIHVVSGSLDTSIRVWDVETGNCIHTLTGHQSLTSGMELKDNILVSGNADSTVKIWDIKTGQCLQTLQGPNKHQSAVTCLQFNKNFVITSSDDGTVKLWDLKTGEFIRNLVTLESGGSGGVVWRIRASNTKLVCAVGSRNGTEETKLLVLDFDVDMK
Chain of FBW7/Skp1 (P63208 whole entry partner, species assumed): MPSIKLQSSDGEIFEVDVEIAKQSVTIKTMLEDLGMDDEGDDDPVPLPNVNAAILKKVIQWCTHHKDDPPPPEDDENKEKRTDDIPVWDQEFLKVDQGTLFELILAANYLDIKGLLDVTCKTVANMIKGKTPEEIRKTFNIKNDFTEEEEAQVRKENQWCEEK
Chain of FBW7/Skp1 (Q13616 whole entry partner, species assumed): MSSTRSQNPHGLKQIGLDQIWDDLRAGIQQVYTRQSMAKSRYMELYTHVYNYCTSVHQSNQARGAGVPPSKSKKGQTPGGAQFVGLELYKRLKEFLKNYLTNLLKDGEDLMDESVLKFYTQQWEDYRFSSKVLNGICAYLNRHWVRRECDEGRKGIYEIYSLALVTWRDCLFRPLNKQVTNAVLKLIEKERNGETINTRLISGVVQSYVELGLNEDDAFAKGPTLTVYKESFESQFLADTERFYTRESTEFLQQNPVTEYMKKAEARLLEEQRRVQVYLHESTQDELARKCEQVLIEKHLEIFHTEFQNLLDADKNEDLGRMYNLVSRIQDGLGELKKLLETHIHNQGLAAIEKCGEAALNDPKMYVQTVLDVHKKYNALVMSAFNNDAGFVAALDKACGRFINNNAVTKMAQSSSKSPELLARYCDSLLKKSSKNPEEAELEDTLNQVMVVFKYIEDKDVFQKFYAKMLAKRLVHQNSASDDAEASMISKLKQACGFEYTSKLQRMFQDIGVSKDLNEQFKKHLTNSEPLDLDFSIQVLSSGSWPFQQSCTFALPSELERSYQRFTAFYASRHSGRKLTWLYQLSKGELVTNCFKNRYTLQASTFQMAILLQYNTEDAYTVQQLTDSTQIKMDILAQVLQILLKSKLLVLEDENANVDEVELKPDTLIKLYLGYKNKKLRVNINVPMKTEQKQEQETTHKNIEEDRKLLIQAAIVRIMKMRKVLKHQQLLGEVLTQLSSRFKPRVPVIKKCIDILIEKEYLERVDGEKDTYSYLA
Chain of FBW7/Skp1 (P62877 whole entry partner, species assumed): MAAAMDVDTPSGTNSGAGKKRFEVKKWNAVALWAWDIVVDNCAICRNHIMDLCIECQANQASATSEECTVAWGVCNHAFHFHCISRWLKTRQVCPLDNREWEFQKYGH
Procedure, shortened: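 FBW7/Skp1 E3 ubiquitination of cyclin E substrate in 50 mM HEPES pH 7.5, 75 mM NaCl, 1 mM DTT; preincubated 30 min at room temperature before Mg/ATP, then 60 min more. Products resolved by 10% SDS-PAGE and immunoblotted with anti-cyclin E.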

βTrCP [1] = target: T1, βTrCP (Homo sapiens, UniProt Q9Y297); assay: Biotin pull down assay with biotinylated IκB peptide; format: binding; conditions: for Biotin Pulldown Assay 10 μM: 10 μM compound; for Biotin Pulldown Assay 100 μM: 100 μM compound
T1 sequence (Q9Y297 1-605): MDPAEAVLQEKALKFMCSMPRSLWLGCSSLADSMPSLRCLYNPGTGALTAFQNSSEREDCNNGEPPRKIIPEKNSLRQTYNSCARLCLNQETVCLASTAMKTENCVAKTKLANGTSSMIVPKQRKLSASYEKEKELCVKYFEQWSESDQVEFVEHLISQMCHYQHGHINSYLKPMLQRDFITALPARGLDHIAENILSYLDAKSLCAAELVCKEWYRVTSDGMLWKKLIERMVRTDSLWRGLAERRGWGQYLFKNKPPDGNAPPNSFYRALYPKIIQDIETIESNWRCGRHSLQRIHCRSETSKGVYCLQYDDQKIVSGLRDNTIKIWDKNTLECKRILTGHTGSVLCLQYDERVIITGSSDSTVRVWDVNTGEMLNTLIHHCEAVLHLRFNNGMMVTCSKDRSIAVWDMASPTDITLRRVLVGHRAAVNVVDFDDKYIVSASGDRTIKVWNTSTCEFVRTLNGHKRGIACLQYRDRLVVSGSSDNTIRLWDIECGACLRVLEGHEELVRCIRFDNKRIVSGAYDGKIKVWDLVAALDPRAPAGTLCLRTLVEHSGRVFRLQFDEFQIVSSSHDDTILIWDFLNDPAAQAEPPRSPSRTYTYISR

Skp2 = Skp2 (Homo sapiens, UniProt Q13309); assay: Selectivity assay vs other E3s: Skp2; format: biochemical; conditions: for inhibition at 100 µM: value in brackets, read-out: % Inhibition Skp2 @ (100 μM); for inhibition at 10 µM: read-out: % Inhibition Skp2 @ 10 μM
Chain of Skp2 (Q13309 whole entry, species assumed): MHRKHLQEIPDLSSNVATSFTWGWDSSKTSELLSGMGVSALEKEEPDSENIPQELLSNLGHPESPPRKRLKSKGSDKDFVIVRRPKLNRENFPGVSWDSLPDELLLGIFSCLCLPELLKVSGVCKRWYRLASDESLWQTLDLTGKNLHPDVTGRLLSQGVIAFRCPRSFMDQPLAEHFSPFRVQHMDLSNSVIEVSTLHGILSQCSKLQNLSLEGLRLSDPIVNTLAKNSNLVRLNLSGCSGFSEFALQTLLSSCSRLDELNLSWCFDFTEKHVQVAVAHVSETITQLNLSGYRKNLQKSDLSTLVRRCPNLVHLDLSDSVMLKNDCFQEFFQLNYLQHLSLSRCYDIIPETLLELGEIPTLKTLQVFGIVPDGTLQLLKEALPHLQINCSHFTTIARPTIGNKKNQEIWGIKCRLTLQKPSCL
Chain of Skp2 (P63208 whole entry partner, species assumed): as the sequence (P63208 whole entry partner, species assumed) above
Chain of Skp2 (Q13616 whole entry partner, species assumed): as the sequence (Q13616 whole entry partner, species assumed) above
Chain of Skp2 (P62877 whole entry partner, species assumed): as the sequence (P62877 whole entry partner, species assumed) above
Procedure, shortened: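 Skp2 ubiquitination was measured in master mixes of 50 mM Herpes buffer, pH 7.5, with 75 mM NaCl and 1 mM DTT, lacking Mg or ATP. Test compounds were preincubated for 30 minutes at room temperature, Mg/ATP was added for a further 60 minutes, and reactions were boiled in SDS loading buffer, resolved on 10% SDS-PAGE, blotted to nitrocellulose and probed with HRP-Streptavidin.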

βTrCP [2] = target: βTrCP (Homo sapiens, UniProt Q9Y297); assay: Fluorescence polarisation (FP) binding assay with fluorescein-tagged IκB peptide
Target sequence in this assay (P63208 whole entry partner, one chain of several): as the sequence (P63208 whole entry partner, species assumed) above

β-TrCP1/Skp1 = β-TrCP1/Skp1 (Homo sapiens, UniProt Q9Y297); assay: βTrCP ubiquitination assay (Ub assay); format: biochemical; conditions: for Ub Assay 10 μM: 10 μM compound; for Ub Assay 100 μM: 100 μM compound
Chain of β-TrCP1/Skp1 (P63208 2-163 partner limits assumed, one chain of several): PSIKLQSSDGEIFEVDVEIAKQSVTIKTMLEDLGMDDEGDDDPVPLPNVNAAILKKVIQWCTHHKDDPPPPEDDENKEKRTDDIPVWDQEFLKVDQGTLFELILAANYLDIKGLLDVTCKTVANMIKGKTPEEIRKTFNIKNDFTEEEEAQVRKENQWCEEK
Procedure, shortened: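 Compounds tested in duplicate at 10 and 100 μM in βTrCP(IκBα) and βTrCP(β-catenin) cascades with UBE1 E1, UbcH3 E2 and biotinylated ubiquitin; substrate phosphorylation done without compound, ubiquitination steps with compound. Product captured on anti-c-Myc plates and detected with SA-Ru TAG by MSD electrochemiluminescence.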

βTrCP/Skp1 = βTrCP/Skp1 (Homo sapiens, UniProt Q9Y297); assay: Surface plasmon resonance (SPR), Biacore T200; format: binding; conditions: apparent KD averaged over both surfaces
Chain of βTrCP/Skp1 (P63208 whole entry partner, one chain of several): as the sequence (P63208 whole entry partner, species assumed) above
Protocol: Surface Plasmon Resonance (SPR)
Experiments were carried out using the Biacore T200 SPR detection system. This system exploits the phenomenon of surface plasmon resonance (SPR) to monitor interactions between molecules. The system involves the attachment of one interacting partner to a surface (an appropriate sensor chip) while the other interacting partner is passed over it in solution. The binding of molecules to the surface generates an SPR response (measured in response units (RU)) that is proportional to the mass and amount of the biomolecule (in this case βTrCP/Skp1) bound to the chip. The relative responses obtained are dependent on the concentration of the molecule binding. At RUmaximum, the attached protein's binding sites are saturated. Binding events can be followed in real time and a range of interaction characteristics can be determined including kinetics, specificity of interactions and the concentration of specific molecules in a sample.
As βTrCP was His tagged, an NTA sensor chip was used. This sensor chip has a dextran surface matrix with immobilized nitrilotriacetic acid (NTA) which provides a means of capturing polyHis-tagged proteins through Nickel chelation. It was hoped that addition of Ni^+ would orient the protein in a specific (and hopefully active) manner as it is covalently immobilised via amine coupling. Addition of EDC:NHS (N-ethyl-N′-(3-[…])-carbodiimide:N-hydroxysuccinimide) converts carboxyl groups on the dextran sensor chip surface to succinamide esters which readily form covalent bonds with primary amines. Each chip contains four flow cells (each a separate surface) which means that compounds/peptides can be passed over different forms of βTrCP and a reference surface simultaneously. If binding to βTrCP is occurring, responses should be the same (accounting for differences in density of surface etc) on each surface.
Two different βTrCP protein complexes were immobilised on to an NTA biacore sensor chip. One included the GSTSkp1 fusion (HisβTrCP/GSTSkp1) while the other was immobilised after GST Removal by Thrombin (HisβTrCP/Skp1). To ensure that the GST moiety is completely removed from Skp1, βTrCP/GSTSkp1 was incubated with thrombin ((10units/mg protein) for at least 16 hours at room temperature in 10mMHEPES 150mMNaCl pH7.4+2 mM CaCl2. Thrombin and GST were removed from βTrCP/Skp1 by buffer exchange through a 50 KDa MWCO vivaspin concentrator.
Protein Immobilisation Procedure for NTA Chip
Ni+ (500 μM NiCl) loaded on to surface at a flow rate of 5 μl/min for 60s. EDC/NHS (activates dextran carboxylates) loaded at a flow rate of 5 μl/min for 240s. Protein ([protein]=100 nM to 1 μM) loaded at a flow rate of 10 μl/min for 180s. Strip solution (350 μM EDTA/1M NaCl) added at flow rate of 10 μl/min for 30s (to chelate excess Ni+ and remove non-covalently bound protein e.g. protein oligomers). Quench solution (ethanolamine) at flow rate of 5 μl/min for 240s (to deactivate surface molecules on the chip that have not crosslinked protein). The immobilisation buffer used was 10 mM HEPES pH 7.4, 150 mM NaCl,
GST Capture Procedure (for Immobilisation Via GSTSkp1)
EDC:NHS was injected at 5 μl/min for 4 min to activate surface for amine coupling (this converts carboxyl groups on the surface of the chip to succinamide esters that react with primary amines)
Anti-GST (60 μg/ml). was loaded at 10 μl/min for 4 min resulting in an increase in response units of 6730 (Biacore manual states it should result in ˜7000)
Ethanolamine was injected at 5 μl/min for 5 min to deactivate remaining unreacted esters at surface (quenching).
Injection of a low concentration of purified GST (from kit) was injected for 3 mins at 5 μl/min before running a regeneration cycle with glycine pH2.0 that disrupts the antibody-GST interaction. […]

[3] = Table 11, with spread, read-out: FP IC50/μM
[4] = Tables 1, 3, 7, 8, 10 nM fluorescein-tagged IκB peptide, read-out: FP Assay IC50/μM

SMILES	inhibition at 100 µM (FBW7/Skp1) [%]	inhibition at 10 µM (FBW7/Skp1) [%]	Biotin Pulldown Assay 10 μM (βTrCP [1])	Biotin Pulldown Assay 100 μM (βTrCP [1])	inhibition at 100 µM (Skp2) [%]	inhibition at 10 µM (Skp2) [%]	IC50 (βTrCP [2]; [3]) [µM]	Ub Assay 10 μM (β-TrCP1/Skp1)	Ub Assay 100 μM (β-TrCP1/Skp1)	Kd (βTrCP/Skp1) [µM]	IC50 (βTrCP [2]; [4]) [µM]
NC(=O)[C@H](CCC(=O)O)NC(=O)[C@H](Cc1ccc([N+](=O)[O-])cc1)NC(=O)[C@H](Cc1ccc(O)cc1)NC(=O)CNC(=O)[C@H](CCC(=O)O)NC(=O)CCC(=O)O [UBP013, Suc-EGYF(4NO2)E-NH2] (Suc-EGY[Phe(4-NO2)]E-NH2)	0	0	no effect/	inhibits	31	11	2.07 ± 0.346	no effect/	inhibits	17.7 ± 5.2	
NC(=O)CC[C@H](NC(=O)CCC(=O)O)C(=O)NCC(=O)N[C@@H](Cc1cccc(F)c1)C(=O)N[C@@H](Cc1ccc([N+](=O)[O-])cc1)C(=O)N[C@@H](CCC(=O)O)C(N)=O [UBP012, Suc-QGF(3F)F(4NO2)E-NH2]	0	0	no effect/	reduces	0	0	2.56 ± 0.374	no effect/	inhibits	5.49 ± 2.27	
NC(=O)[C@H](CCC(=O)O)NC(=O)[C@H](Cc1cccc2ccccc12)NC(=O)[C@H](Cc1cccc(F)c1)NC(=O)CNC(=O)[C@H](CCC(=O)O)NC(=O)CCC(=O)O [UBP010, Suc-EGF(3F)1NalE-NH2] (Suc-EG[Phe(3-F)][1Nal]E-NH2)	0	3	inhibits/	inhibits	12	0	0.157 ± 0.037	inhibits/	inhibits	0.32 ± 0.24	0.157
NC(=O)[C@H](CCC(=O)O)NC(=O)[C@H](Cc1ccc([N+](=O)[O-])cc1)NC(=O)[C@H](Cc1cccc(F)c1)NC(=O)CNC(=O)[C@H](CCC(=O)O)NC(=O)/C=C\C(=O)O [UBP008, Mal-EGF(3F)F(4NO2)E-NH2] (Maleoyl-EG[Phe(3-F)][Phe(4-NO2)]E-NH2)	18	0	no effect/	inhibits	14	0	2.17 ± 0.425	no effect/	inhibits	1.46 ± 0.035	
NC(=O)[C@H](CCC(=O)O)NC(=O)[C@H](Cc1c[nH]cn1)NC(=O)[C@H](Cc1cccc(F)c1)NC(=O)CNC(=O)[C@H](CCC(=O)O)NC(=O)CCC(=O)O [UBP015, Suc-EGF(3F)HE-NH2] (Suc-EG[Phe(3-F)]HE-NH2)	83	12	reduces/	inhibits	18	3	0.521 ± 0.059	reduces/	inhibits	0.4 ± 0.021	0.521
NC(=O)[C@H](CCC(=O)O)NC(=O)[C@H](Cc1ccc([N+](=O)[O-])cc1)NC(=O)[C@H](Cc1cccc(F)c1)NC(=O)CNC(=O)[C@H](CCC(=O)O)NC(=O)CCC(=O)O [UBP004, Suc-EGF(3F)F(4NO2)E-NH2] (Suc-EG[Phe(3-F)][Phe(4-NO2)]E-NH2)	2	0	reduces/	inhibits	3	0	0.522 ± 0.049	inhibits/	inhibits	4.53 ± 0.681	
NC(=O)[C@H](CCC(=O)O)NC(=O)[C@H](Cc1cccc2ccccc12)NC(=O)[C@H](Cc1ccc([N+](=O)[O-])cc1)NC(=O)CNC(=O)[C@H](CCC(=O)O)NC(=O)CCC(=O)O [UBP011, Suc-EGF(4NO2)1NalE-NH2] (Suc-EG[Phe(4-NO2)][1Nal]E-NH2)	28	14	reduces/	inhibits	6	12	1.31 ± 0.198	reduces/	inhibits	1.96 ± 0.635	
NC(=O)[C@H](CCC(=O)O)NC(=O)[C@H](Cc1cccc2ccccc12)NC(=O)[C@H](Cc1ccc(O)cc1)NC(=O)CNC(=O)[C@H](CCC(=O)O)NC(=O)CCC(=O)O [UBP009, Suc-EGY1NalE-NH2] (Suc-EGY[1Nal]E-NH2)	5	1	no effect/	inhibits	6	0	1.15 ± 0.222	reduces/	inhibits	1.49 ± 0.625	1.15
